Measurements: patent US8609610B2, “Inhibitors of the trypsin-like site of the proteasome and methods of use thereof” (Trustees of Dartmouth College, priority 2011, dated 2013)

Assays:
Type in all cases: cell-based
[1] = target: T1, caspase-like sites (β1) of proteasome in MM cells (Homo sapiens, UniProt P28072+Q99436); assay: PROTEASOMEGLO assay of proteasome inhibition in MM cells
T1 sequence (P28072 35-239): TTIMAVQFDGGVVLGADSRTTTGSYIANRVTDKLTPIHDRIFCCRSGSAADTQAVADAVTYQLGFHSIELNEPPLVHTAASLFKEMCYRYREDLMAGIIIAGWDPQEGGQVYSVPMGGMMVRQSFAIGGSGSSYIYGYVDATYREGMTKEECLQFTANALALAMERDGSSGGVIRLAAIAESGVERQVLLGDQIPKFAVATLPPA
T1 sequence (Q99436 44-277): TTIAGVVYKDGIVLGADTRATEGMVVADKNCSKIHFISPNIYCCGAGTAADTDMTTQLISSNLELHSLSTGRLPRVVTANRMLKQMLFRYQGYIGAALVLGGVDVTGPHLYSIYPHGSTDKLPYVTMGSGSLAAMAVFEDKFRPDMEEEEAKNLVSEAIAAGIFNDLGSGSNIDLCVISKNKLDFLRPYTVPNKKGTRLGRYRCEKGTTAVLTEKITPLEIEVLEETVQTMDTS

[2] = target: T2, chymotrypsin-like sites (β5) of proteasome in MM cells (Homo sapiens, UniProt P28074); assay: as above
T2 sequence (P28074 60-263): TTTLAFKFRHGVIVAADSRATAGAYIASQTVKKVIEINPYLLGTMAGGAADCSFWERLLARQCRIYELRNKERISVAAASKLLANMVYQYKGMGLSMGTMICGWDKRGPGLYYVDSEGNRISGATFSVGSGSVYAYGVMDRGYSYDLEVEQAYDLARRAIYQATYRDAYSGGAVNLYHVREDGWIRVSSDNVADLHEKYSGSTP
Procedure: (§1) Proteasome inhibition in MM cells was measured with luminogenic substrates using PROTEASOMEGLO assay (Promega). […] An aliquot of culture was pelleted and medium was removed and replaced with PBS. The resulting cell suspension was mixed with luminogenic substrates in the manufacturer-provided lysis/assay buffer. After 3 minutes mixing on an orbital shaker, the plate was incubated in the dark for additional 17 minutes, followed by the measurements of the luminescence, performed in triplicate for each substrate/data point. Data were analyzed as for purified proteasomes. […] Cells (1×10^6 per well of a 6-well plate) were incubated with the inhibitors for 4 hours at 37° C. and this was followed by a 2 hour incubation with 5 μM BODIPY-TMR-epoxomicin. Subsequently, the medium was removed and the cells were washed with PBS and harvested. […] The supernatant was collected and the protein concentration was determined by the Bradford assay, and used to normalize gel loading. The samples were analysed by SDS-PAGE and fluorescent densitometry as described for competition experiment in cell lysates. IC50 values were calculated from three independent experiments using […] PRISM software.

[3] = target: T3, trypsin-like sites (β2) of proteasome in MM cells (Homo sapiens, UniProt Q99436); assay: as above
T3 construct: endogenous in cells; host or cells: NCI-H929, RPMI-8226 and other MM cell lines
T3 sequence (Q99436 44-277): T1 sequence (Q99436 44-277)
Procedure: as §1

[4] = test system: NCI-H929 cells; assay: ALAMAR BLUE cell viability assay; details: NCI-H929, then 48 h
Procedure: (§2) RPMI-8226 and NCI-H929 cells were cultured in RPMI-1640 supplemented with 10% fetal bovine serum, penicillin, streptomycin, and plasmocin in 5% CO2 humidified incubator. HEK-293T cells were cultured in DMEM containing 10% fetal calf serum, 10 units/mL penicillin, and 10 μg/mL streptomycin in a 7% CO2 humidified incubator. Viability of multiple myeloma cells was measured with ALAMAR BLUE mitochondrial dye conversion assay. Viability of peripheral blood mononuclear cells (PBMNCs) was measured using CELL TITER-GLO luminescent cell viability assay (Promega), which is based on quantification of ATP present in the cells. Caspase-3/7 activity was measured using APO-ONE 3/7 homogeneous assay (Promega).

[5] = test system: RPMI-8226 cells; assay: ALAMAR BLUE cell viability assay; details: RPMI-8226, then 48 h
Procedure: as §2

[6] = test system: KMS-18 cells; assay: ALAMAR BLUE cell viability assay; details: then 48 h
Procedure: as §2

[7] = test system: MM1.R cells; assay: ALAMAR BLUE cell viability assay; details: LU-005 0.004 μM 1 h, then 48 h
Procedure: as §2

[8] = test system: KMS-12-BM cells; assay: ALAMAR BLUE cell viability assay; details: then 48 h
Procedure: as §2

## CC(C)C[C@H](NC(=O)[C@H](Cc1c(F)c(F)c(F)c(F)c1F)NC(=O)[C@H](Cc1ccccc1)NC(=O)[C@H](Cc1ccccc1)N=[N+]=[N-])C(=O)[C@@]1(C)CO1 [LU-005]
[1]; KMS-12-BM, LU-005 0.037 μM 1 h
  Inhibition of active sites β1: −1 ± 5 % control
[1]; KMS-12-BM, LU-005 0.33 μM 1 h
  Inhibition of active sites β1: 6 ± 12 % control
[1]; KMS-12-BM, LU-005 1.0 μM 1 h
  Inhibition of active sites β1: 11 ± 16 % control
[1]; KMS-18, LU-005 0.037 μM 1 h
  Inhibition of active sites β1: 0 ± 8 % control
[1]; KMS-18, LU-005 0.33 μM 1 h
  Inhibition of active sites β1: 29 ± 7 % control
[1]; KMS-18, LU-005 1.0 μM 1 h
  Inhibition of active sites β1: 32 ± 4 % control
[1]; KMS-18, LU-005 3.0 μM 1 h
  Inhibition of active sites β1: 39 ± 12 % control
[1]; KMS-18, LU-005 9.0 μM 1 h
  Inhibition of active sites β1: 42 ± 2 % control
[1]; MM1.R, LU-005 0.004 μM 1 h
  Inhibition of active sites β1: 6 ± 8 % control
[1]; NCI-H929, LU-005 0.0014 μM 1 h
  Inhibition of active sites β1: −14 ± 15 % control
[1]; NCI-H929, LU-005 0.004 μM 1 h
  Inhibition of active sites β1: −7 ± 10 % control
[1]; RPMI-8226, LU-005 0.037 μM 1 h
  Inhibition of active sites β1: 16 ± 7 % control
[1]; RPMI-8226, LU-005 0.33 μM 1 h
  Inhibition of active sites β1: 37 ± 15 % control
[1]; RPMI-8226, LU-005 1.0 μM 1 h
  Inhibition of active sites β1: 37 ± 4 % control
[2]; KMS-12-BM, LU-005 0.037 μM 1 h
  Inhibition of active sites β5: 48 ± 9 % control
[2]; KMS-12-BM, LU-005 0.33 μM 1 h
  Inhibition of active sites β5: 81 ± 3 % control
[2]; KMS-12-BM, LU-005 1.0 μM 1 h
  Inhibition of active sites β5: 95 ± 2 % control
[2]; KMS-18, LU-005 0.037 μM 1 h
  Inhibition of active sites β5: 14 % control
[2]; KMS-18, LU-005 0.33 μM 1 h
  Inhibition of active sites β5: 69 ± 8 % control
[2]; KMS-18, LU-005 1.0 μM 1 h
  Inhibition of active sites β5: 85 ± 6 % control
[2]; KMS-18, LU-005 3.0 μM 1 h
  Inhibition of active sites β5: 94 ± 4 % control
[2]; KMS-18, LU-005 9.0 μM 1 h
  Inhibition of active sites β5: 97 ± 1 % control
[2]; MM1.R, LU-005 0.004 μM 1 h
  Inhibition of active sites β5: 17 ± 4 % control
[2]; NCI-H929, LU-005 0.0014 μM 1 h
  Inhibition of active sites β5: 22 ± 4 % control
[2]; NCI-H929, LU-005 0.004 μM 1 h
  Inhibition of active sites β5: 22 ± 11 % control
[2]; RPMI-8226, LU-005 0.037 μM 1 h
  Inhibition of active sites β5: 45 ± 26 % control
[2]; RPMI-8226, LU-005 0.33 μM 1 h
  Inhibition of active sites β5: 62 ± 32 % control
[2]; RPMI-8226, LU-005 1.0 μM 1 h
  Inhibition of active sites β5: 82 ± 16 % control
[3]; KMS-12-BM, LU-005 0.037 μM 1 h
  Inhibition of active sites β2: −12 ± 1 % control
[3]; KMS-12-BM, LU-005 0.33 μM 1 h
  Inhibition of active sites β2: 3 ± 18 % control
[3]; KMS-12-BM, LU-005 1.0 μM 1 h
  Inhibition of active sites β2: 29 ± 7 % control
[3]; KMS-18, LU-005 0.037 μM 1 h
  Inhibition of active sites β2: −13 ± 13 % control
[3]; KMS-18, LU-005 0.33 μM 1 h
  Inhibition of active sites β2: 24 ± 6 % control
[3]; KMS-18, LU-005 1.0 μM 1 h
  Inhibition of active sites β2: 38 ± 5 % control
[3]; KMS-18, LU-005 3.0 μM 1 h
  Inhibition of active sites β2: 50 ± 14 % control
[3]; KMS-18, LU-005 9.0 μM 1 h
  Inhibition of active sites β2: 62 ± 5 % control
[3]; MM1.R, LU-005 0.004 μM 1 h
  Inhibition of active sites β2: 6.5 ± 0.5 % control
[3]; NCI-H929, LU-005 0.0014 μM 1 h
  Inhibition of active sites β2: −9 ± 2 % control
[3]; NCI-H929, LU-005 0.004 μM 1 h
  Inhibition of active sites β2: −13 ± 7 % control
[3]; RPMI-8226, LU-005 0.037 μM 1 h
  Inhibition of active sites β2: 1 ± 17 % control
[3]; RPMI-8226, LU-005 0.33 μM 1 h
  Inhibition of active sites β2: 13 ± 11 % control
[3]; RPMI-8226, LU-005 1.0 μM 1 h
  Inhibition of active sites β2: 22 ± 19 % control
[4]; LU-005 0.0014 μM 1 h
  Viability +NC-002 & NC-001: 50 ± 17 % control
  Viability +NC-022: 77 ± 2 % control
  Viability −NC-022: 97 ± 9 % control
[4]; LU-005 0.004 μM 1 h
  Viability +NC-002 & NC-001: 36 ± 14 % control
  Viability +NC-022: 69 ± 0 % control
  Viability −NC-022: 100 ± 13 % control
[5]; LU-005 0.037 μM 1 h
  Viability +NC-002 & NC-001: 76 ± 3 % control
  Viability +NC-022: 104 ± 5 % control
  Viability −NC-022: 109 ± 2 % control
[5]; LU-005 0.33 μM 1 h
  Viability +NC-002 & NC-001: 4.6 ± 0.7 % control
  Viability +NC-022: 31 ± 9 % control
  Viability −NC-022: 94 ± 1 % control
[5]; LU-005 1.0 μM 1 h
  Viability +NC-002 & NC-001: 1 ± 0 % control
  Viability +NC-022: 6 ± 3 % control
  Viability −NC-022: 10 ± 10 % control
[6]; LU-005 0.037 μM 1 h
  Viability +NC-002 & NC-001: 79 ± 14 % control
  Viability +NC-022: 104 ± 3 % control
  Viability −NC-022: 108 ± 1 % control
[6]; LU-005 0.33 μM 1 h
  Viability +NC-002 & NC-001: 33 ± 20 % control
  Viability +NC-022: 106 ± 16 % control
  Viability −NC-022: 108 ± 0 % control
[6]; LU-005 1.0 μM 1 h
  Viability +NC-002 & NC-001: 8 ± 4 % control
  Viability +NC-022: 29 ± 12 % control
  Viability −NC-022: 88 ± 16 % control
[6]; LU-005 3.0 μM 1 h
  Viability +NC-002 & NC-001: 1 ± 0.1 % control
  Viability +NC-022: 24 ± 8 % control
  Viability −NC-022: 72 ± 2 % control
[6]; LU-005 9.0 μM 1 h
  Viability +NC-002 & NC-001: 0.8 ± 0.2 % control
  Viability +NC-022: 17.5 ± 7.5 % control
  Viability −NC-022: 45 ± 8 % control
[7]
  Viability +NC-002 & NC-001: 26 ± 6 % control
  Viability +NC-022: 66 ± 1 % control
  Viability −NC-022: 102 ± 4 % control
[8]; LU-005 0.037 μM 1 h
  Viability +NC-002 & NC-001: 50 ± 2 % control
  Viability +NC-022: 90 ± 5 % control
  Viability −NC-022: 89 ± 8 % control
[8]; LU-005 0.33 μM 1 h
  Viability +NC-002 & NC-001: 2 ± 0 % control
  Viability +NC-022: 12 ± 2 % control
  Viability −NC-022: 80 ± 9 % control
[8]; LU-005 1.0 μM 1 h
  Viability +NC-002 & NC-001: 1 ± 0 % control
  Viability +NC-022: 1.5 ± 0.1 % control
  Viability −NC-022: 27 ± 6 % control
